This note sets out measurements from US11044909B2, “Composition for destruction of microalgae or sphaerocarpus” (CUREARTH, INC., priority 2015, dated 2021).

A word on the IC50: it is the point on the concentration scale where inhibition reaches its midpoint.

SMILES strings stand for the structures. Like-named read-outs stand apart in the source and are kept apart here.

In data set [1] the test system is Chattonella Marina. Briefly: Microalgae-destroying effect by IC50 measurement (cell count). To be noted: 24 h, read-out: IC50 Chattonella Marina. It counts as cell-based. On the procedure:
(§1) The IC50 value was obtained according to Equation 1: […]
(§2) First, the above-listed microalgae were cultured in a culture flask at a temperature of about 20° C. under light conditions, and a medium used was Guillard's f/2 medium which is commonly used in the art (Guillard R R L and Keller M D. Culturing dinoflagellates. In: Spector (Ed.), Dinoflagellates. New York: Academic Press; 1984, 391442).
(§3) After the cultured microalgae were transferred onto a 24-well plate, Chattonella Marina, Heterosigma circularisquama, Cochlodinium Polykrikoides, and Heterosigma akashiwo, which were in an exponential growth phase, were treated with Compounds 1 to 3, 5 to 10, 12, 13, 17 to 43, and 45 to 47 synthesized in Examples 1 to 3, 5 to 10, 12, 13, 17 to 43, and 45 to 47 at concentrations of 0.1 uM, 0.2 uM, 0.5 uM, 1 uM, 2 uM, and 5 uM, and then cultured for 1 day.
(§4) Control groups were not treated with any of the compounds synthesized in the above-identified examples. After incubation, the number of cells of each alga was counted using a Burker-Tukr hemocytometer, and IC50 values were calculated according to Equation 1 using SigmaPlot Version 11.2 software (Standard curve: the four-parameter logistic curve).

For data set [2], the system named is Heterocapsa Circularisquama. Described as above. The format is cell-based. To be noted: 24 h. Here is the method: as §1, §2, §3, §4
The test system of data set [3] is Heterosigma Akashiwo. The data set is described as above. To be noted: 24 h, read-out: IC50 Heterosigma Akashiwo. The format is cell-based. Here is the method:
as §1, §2, §3, §4

Data set [4] relates to Cochlodinium Polykrikoides. The description is as above. The format is cell-based. To be noted: Margalefidinium polykrikoides, 24 h, read-out: IC50 Cochlodinium Polykrikoides. On the procedure:
(§5) The IC50 value was obtained according to Equation 1:
(§6) The algicidal activity of each compound was calculated using Equation 2: Algicidal activity (%)=(1−Tt/Ct)×100 <Equation 2>
(§7) In Equation 2, T (treatment group) and C (control group) represent algae densities in cell counts when each compound was inoculated and was not inoculated, respectively, and t represents the number of days which had passed after the inoculation.
as §2, §3, §4

Data set [5] has as its system Microcystis aeruginosa. The description is as above. The format is cell-based. To be noted: Microcystis aeruginosa, 120 h, read-out: IC50 Microcystis aeruginosa. Here is the method: as §5, §6, §7, §2
Microcystis aeruginosa was treated with Compounds 1 to 3, 5 to 10, 12, 13, 17 to 43, and 45 to 51 synthesized in Examples 1 to 3, 5 to 10, 12, 13, 17 to 43, and 45 to 51 at concentrations of 0.1 uM, 0.2 uM, 0.5 uM, 1 uM, 2 uM, 5 uM, 10 uM, 15 uM, and 20 uM and then cultured for 5 days.
as §4

Data set [6] relates to Chattonella Marina. In words: Microalgae-destroying effect by surviving cells rate measurement. It counts as cell-based. To be noted: 1 μM, about 6 hours. Here is the method: (§8) To investigate a microalgae-destroying effect of Compound 35 synthesized in Example 35, culture solutions of Chattonella Marina, Heterosigma Circularisquama, Cochlodinium Polykrikoides, and Heterosigma akashiwo (40 mL, initial population number: about 15×10^4 to 18×10^4/mL) were each treated with a solution of Compound 35 (1 μM in dimethyl sulfoxide (DMSO) and f/2 medium) for about 6 hours. A microalgae culture solution not treated with a solution of Compound 35 was used as a control group. After the treatment, viable cell ratios of the microalgae with respect to time were measured, and it was also observed whether the microalgae were destroyed.

In data set [7] the test system is Cochlodinium Polykrikoides. The data set is described as above. The format is cell-based. To be noted: 1 μM, about 6 hours. On the procedure:
as §8

Data set [8] relates to Heterosigma Akashiwo. The description is as above. The format is cell-based. To be noted: 1 μM, about 6 hours. On the procedure:
as §8

Data set [9] has as its system Heterosigma Circularisquama. Described as above. To be noted: 1 μM, about 6 hours. The format is cell-based. On the procedure: as §8
Data set [10] relates to Danio rerio. In words: Acute toxicity test on Danio rerio. It counts as in vivo. To be noted: 15 μM, 2 weeks; FIG. 5. On the procedure:
An acute toxicity test on Danio rerio (zebrafish) was performed using compounds 33 and 35 synthesized in Examples 33 and 35. In particular, 2-cm-sized Danio rerio, which had been 3 months since hatching, was acclimatized for 14 days before the start of the experiment. The Danio rerio were feed twice a day during the acclimation period. Next, solutions of Compounds 33 and […] were prepared at concentrations of 0, 5, 10, 15, 20, 25, and 30 μM. Culture solutions of the Danio rerio (10 L, initial population number: 10 zebrafish in total (1 zebrafish/L)) were treated for 2 weeks with the solutions of Compounds 33 and 35 at different concentrations to thereby perform the acute toxicity test.

Where [11] appears, read: Table 1, 3,4-dichlorobenzylamines, 0.1-5 uM, cultured 1 day.
The mark [12] stands for this setting: Table 1, 3,4-dichlorobenzylamines, 0.1-5 uM, cultured 1 day, read-out: IC50 Heterocapsa Circularisquama.
Setting [13] is: Table 1, 3,4-dichlorobenzylamines, 0.1-20 uM, cultured 5 days.
[14] abbreviates: Table 2, 0.1-5 uM, cultured 1 day.
Setting [15] is: Table 2, 0.1-5 uM, cultured 1 day, read-out: IC50 Heterocapsa Circulariaquama.

Consider `Clc1ccc(CNC2CCCCC2)cc1Cl` [Compound 35, Cyclohexyl-(3,4-dichloro-benzyl)-amine], for which the IC50 is 0.29 µM in data set [1] (setting [11]); 1.14 µM in data set [2] (setting [12]); 0.218 µM in [3] (setting [11]); 0.15 µM in data set [4] (setting [11]); 14.6 µM in data set [5] (setting [13]). The “viable cell ratio with respect to time” value in [6] (FIG. 1), in [7] (FIG. 1), in [8] (FIG. 1) and in data set [9] (FIG. 1) was “decreased with time” throughout. For the same compound, the “whether the microalgae were destroyed (microscope images)” value in data set [6] (FIG. 2), in data set [7] (FIG. 2), in data set [8] (FIG. 2) and in data set [9] (FIG. 2) was “destroyed” each time. Further, the survival ratio in data set [10] amounted to 100%.
Consider `Clc1ccc(CNC2CCCCCCC2)cc1Cl` [Compound 47, Cyclooctyl-(3,4-dichloro-benzyl)-amine], for which the 50% inhibitory concentration (IC50) in data set [1] (setting [11]) came out at 0.5 µM; in [2] (setting [12]), 1.19 µM; in [3] (setting [11]), 0.34 µM; in [4] (setting [11]), 0.1 µM; in data set [5] (setting [13]), 15 µM.
In the case of `CCCNCc1ccc(Cl)c(Cl)c1` [Compound 18, (3,4-Dichloro-benzyl)-propyl-amine], the IC50 is 2.67 µM in data set [1] (setting [11]); more than 5 µM in data set [2] (setting [12]); 0.73 µM in data set [3] (setting [11]); 4.38 µM in data set [4] (setting [11]); 11.8 µM in [5] (setting [13]).
For the compound `CN(C)CCNCc1ccc(Cl)c(Cl)c1` [Compound 3, N′-(3,4-Dichloro-benzyl)-N,N-dimethyl-ethane-1,2-diamine], the IC50 in data set [1] (setting [11]) was more than 5 µM; in data set [2] (setting [12]), 3.1 µM; in data set [3] (setting [11]), 2.25 µM; in data set [4] (setting [11]) it was more than 5 µM; in [5] (setting [13]) it was 8.41 µM.
On to `c1ccc(CNC2CCCCC2)cc1` [Compound 43, Benzyl-cyclohexyl-amine], for which the IC50 in data set [1] (setting [14]) was more than 5 µM; in [2] (setting [15]), more than 5 µM; in data set [3] (setting [14]), 0.67 µM; in [4] (setting [14]), more than 5 µM; in data set [5], more than 5 µM.
With `COC(CCCNCc1ccc(Cl)c(Cl)c1)OC` [Compound 6, (3,4-Dichloro-benzyl)-(4,4-dimethoxy-butyl)-amine], the IC50 in [1] (setting [11]) was more than 5 µM; in [2] (setting [12]), 4.8 µM; in data set [3] (setting [11]) it was 1.3 µM; in data set [4] (setting [11]), 4.42 µM; in [5] (setting [13]) it was 8.64 µM.
Regarding `Brc1ccccc1CNCCc1ccccn1` [Compound 39, (2-Bromo-benzyl)-(2-pyridin-2-yl-ethyl)-amine], the IC50 in data set [1] is 1.12 µM; in data set [2] (read-out: IC50 Heterocapsa Circulariaquama) it was more than 5 µM; in data set [3] it was 0.28 µM; in data set [4], more than 5 µM; in data set [5], more than 5 µM.
Consider `Clc1ccc(CNCCc2ccncc2)cc1Cl` [Compound 30, (3,4-Dichloro-benzyl)-(2-pyridin-4-yl-ethyl)-amine], for which the IC50 is 3.47 µM in data set [1] (setting [11]); 1.91 µM in data set [2] (setting [12]); 0.42 µM in data set [3] (setting [11]); 2.7 µM in data set [4] (setting [11]); more than 20 µM in data set [5] (setting [13]).
For `Clc1ccc(CNCCc2ccccn2)cc1Cl` [Compound 32, (3,4-Dichloro-benzyl)-(2-pyridin-2-yl-ethyl)-amine], the IC50 in [1] (setting [11]) worked out at 0.31 µM; in [2] (setting [12]), 1.05 µM; in data set [3] (setting [11]), 0.18 µM; in [4] (setting [11]) it was 0.5 µM; in data set [5] (setting [13]), 19.6 µM.
Consider `Clc1ccc(CNCc2ccccc2)cc1Cl` [Compound 29, Benzyl-(3,4-dichloro-benzyl)-amine], for which the IC50 in [1] (setting [11]) came to 3.46 µM; in data set [2] (setting [12]) it was 3.23 µM; in [3] (setting [11]), 0.6 µM; in [4] (setting [11]) it was 2.75 µM; in data set [5] (setting [13]) it was 14.4 µM.
With `Clc1ccc(CNCc2ccccn2)cc1Cl` [Compound 26, (3,4-Dichloro-benzyl)-pyridin-2-ylmethyl-amine], the IC50 is 3.4 µM in data set [1] (setting [11]); more than 5 µM in data set [2] (setting [12]); 0.72 µM in data set [3] (setting [11]); more than 5 µM in data set [4] (setting [11]); more than 20 µM in data set [5] (setting [13]).
For `Brc1ccc(CNCCc2ccccn2)cc1` [Compound 41, (4-Bromo-benzyl)-(2-pyridin-2-yl-ethyl)-amine], the IC50 in data set [1] (setting [14]) is 0.72 µM; in [2] (setting [15]), more than 5 µM; in data set [3] (setting [14]) it was 0.14 µM; in data set [4] (setting [14]) it was more than 5 µM; in data set [5], more than 5 µM.
For the compound `CN(C)CCCNC(=O)c1ccc(Cl)c(Cl)c1` [Compound 12, 3,4-Dichloro-N-(3-dimethylamino-propyl)-benzamide], the IC50 in data set [1] (setting [14]) is more than 5 µM; in data set [2] (setting [15]), more than 5 µM; in data set [3] (setting [14]) it was 1.55 µM; in [4] (setting [14]), more than 5 µM; in data set [5] it was more than 5 µM.
For `c1ccc(CNCCc2ccccn2)cc1` [Compound 37, Benzyl-(2-pyridin-2-yl-ethyl)-amine], the IC50 in data set [1] (setting [14]) is 0.34 µM; in [2] (setting [15]), more than 5 µM; in data set [3] (setting [14]), 0.13 µM; in data set [4] (setting [14]) it was more than 5 µM; in data set [5], more than 5 µM.
With `O=C(/C=C/c1ccc(Cl)c(Cl)c1)c1ccc(Cl)cc1` [Compound 24, 1-(4-Chloro-phenyl)-3-(3,4-dichloro-phenyl)-propenone], the IC50 in data set [1] (setting [14]) is more than 5 µM; in data set [2] (setting [15]), more than 5 µM; in data set [3] (setting [14]), 1.7 µM; in [4] (setting [14]), 1.33 µM; in [5] it was more than 5 µM.
As for `CCN(CC)CCNCc1ccc(Cl)c(Cl)c1` [Compound 1, N′-(3,4-dichloro-benzyl)-N,N-diethyl-ethane-1,2-diamine], the IC50 is 2.9 µM in [1] (setting [11]); 1.76 µM in data set [2] (setting [12]); 1.58 µM in [3] (setting [11]); 2.3 µM in data set [4] (setting [11]); 4.89 µM in data set [5] (setting [13]).
With `Clc1ccc(NCc2ccc(Cl)c(Cl)c2)cc1` [Compound 21, (4-Chloro-phenyl)-(3,4-dichloro-benzyl)-amine], the IC50 is more than 5 µM in data set [1] (setting [11]); 3.3 µM in data set [2] (setting [12]); 1.28 µM in data set [3] (setting [11]); 3.6 µM in [4] (setting [11]); 9.66 µM in data set [5] (setting [13]).
